Test results: PubChem BioAssay AID1963826 (Molecular Pharmacology Branch, DTP, NCI, 2024)

System: 926638-142-R-J1-PDC complex spheroid viability
Test: Anticancer human tumor 926638-142-R-J1-PDC patient-derived endometrial carcinoma cell line growth inhibition [POLQ]
Conditions: for IC50: curve of first compound; for viability, T/C: stronger effect = lower value
How it was run: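 Three-cell-type spheroids modelling solid tumor plus stroma served as the readout system; POL inhibitors were tested individually and in combination, concentration ranges set by clinical Cmax where known.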

[1] = second compound 0.0316 µM, first compound 0.0316 µM
[2] = second compound 0.0316 µM, first compound 0.1 µM
[3] = second compound 0.0316 µM, first compound 0.316 µM
[4] = second compound 0.0316 µM, first compound 1 µM
[5] = second compound 0.0316 µM, first compound 3.16 µM
[6] = second compound 0.0316 µM, first compound 10 µM
[7] = second compound 0.1 µM, first compound 0.0316 µM
[8] = second compound 0.1 µM, first compound 0.1 µM
[9] = second compound 0.1 µM, first compound 0.316 µM
[10] = second compound 0.1 µM, first compound 1 µM
[11] = second compound 0.1 µM, first compound 3.16 µM
[12] = second compound 0.1 µM, first compound 10 µM
[13] = second compound 0.316 µM, first compound 0.0316 µM
[14] = second compound 0.316 µM, first compound 0.1 µM
[15] = second compound 0.316 µM, first compound 0.316 µM
[16] = second compound 0.316 µM, first compound 1 µM
[17] = second compound 0.316 µM, first compound 3.16 µM
[18] = second compound 0.316 µM, first compound 10 µM
[19] = second compound 1 µM, first compound 0.0316 µM
[20] = second compound 1 µM, first compound 0.1 µM
[21] = second compound 1 µM, first compound 0.316 µM
[22] = second compound 1 µM, first compound 1 µM
[23] = second compound 1 µM, first compound 3.16 µM
[24] = second compound 1 µM, first compound 10 µM
[25] = second compound 3.16 µM, first compound 0.0316 µM
[26] = second compound 3.16 µM, first compound 0.1 µM
[27] = second compound 3.16 µM, first compound 0.316 µM
[28] = second compound 3.16 µM, first compound 1 µM
[29] = second compound 3.16 µM, first compound 3.16 µM
[30] = second compound 3.16 µM, first compound 10 µM
[31] = second compound 10 µM, first compound 0.0316 µM
[32] = second compound 10 µM, first compound 0.1 µM
[33] = second compound 10 µM, first compound 0.316 µM
[34] = second compound 10 µM, first compound 1 µM
[35] = second compound 10 µM, first compound 3.16 µM
[36] = second compound 10 µM, first compound 10 µM
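Also: spheroids exposed to drugs for one week before readout.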
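For viability, T/C in this document: percent viability relative to DMSO vehicle control wells set as 100%.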

With CNCc1ccc(-c2[nH]c3cc(F)cc4c3c2CCNC4=O)cc1 + Cc1cccc(N(C)C(=O)C2C(O)CCN2c2nc(C)cc(C(F)(F)F)c2C#N)c1 the IC50 (second compound 0.0316 µM) was over 10000 nM, the IC50 (second compound 0.1 µM) was over 10000 nM and the IC50 (second compound 0.316 µM) was over 10000 nM. For the same compound, the IC50 (second compound 1 µM) was over 10000 nM, the IC50 (second compound 3.16 µM) was over 10000 nM and the IC50 (second compound 10 µM) was over 10000 nM. The viability, T/C [1] was 69.2%, the viability, T/C [2] was 112% and the viability, T/C [3] was 100%. The viability, T/C [4] was 93.8%, the viability, T/C [5] was 89.9% and the viability, T/C [6] was 82%. It also gave a viability, T/C [7] of 103%, a viability, T/C [8] of 97.9% and a viability, T/C [9] of 85.5%. For the same compound, the viability, T/C [10] was 80.1%, the viability, T/C [11] was 75.6% and the viability, T/C [12] was 74.7%. It also gave a viability, T/C [13] of 104%, a viability, T/C [14] of 92.7% and a viability, T/C [15] of 84.5%. For the same compound, the viability, T/C [16] was 89.7%, the viability, T/C [17] was 100% and the viability, T/C [18] was 81%. The viability, T/C [19] was 91.3%, the viability, T/C [20] was 89.6% and the viability, T/C [21] was 89.7%. For the same compound, the viability, T/C [22] was 89%, the viability, T/C [23] was 81% and the viability, T/C [24] was 79.1%. The viability, T/C [25] was 97.8%, the viability, T/C [26] was 92.8% and the viability, T/C [27] was 85.1%. It also gave a viability, T/C [28] of 87.9%, a viability, T/C [29] of 98.5% and a viability, T/C [30] of 69.7%. The viability, T/C [31] was 88.8%, the viability, T/C [32] was 87.7% and the viability, T/C [33] was 96.2%. It also gave a viability, T/C [34] of 87.2%, a viability, T/C [35] of 75.4% and a viability, T/C [36] of 71.7%.

With COc1cccc(OCCCN)c1-c1cc(Nc2cnc(C#N)cn2)n[nH]1 + Cc1cccc(N(C)C(=O)C2C(O)CCN2c2nc(C)cc(C(F)(F)F)c2C#N)c1 the IC50 (second compound 0.0316 µM) was 56.8 nM, the IC50 (second compound 0.1 µM) was 59.4 nM and the IC50 (second compound 0.316 µM) was 47.7 nM. For the same compound, the IC50 (second compound 1 µM) was 50.4 nM, the IC50 (second compound 3.16 µM) was 108 nM and the IC50 (second compound 10 µM) was 29 nM. The viability, T/C (second compound 0.0316 µM, first compound 0.00316 µM) was 99.5%, the viability, T/C (second compound 0.0316 µM, first compound 0.01 µM) was 72.9% and the viability, T/C [1] was 51.1%. The viability, T/C [2] was 49.4%, the viability, T/C [3] was 39.5% and the viability, T/C [4] was 36%. For the same compound, the viability, T/C (second compound 0.1 µM, first compound 0.00316 µM) was 102%, the viability, T/C (second compound 0.1 µM, first compound 0.01 µM) was 81.8% and the viability, T/C [7] was 54.2%. For the same compound, the viability, T/C [8] was 47.2%, the viability, T/C [9] was 46.1% and the viability, T/C [10] was 37.8%. For the same compound, the viability, T/C (second compound 0.316 µM, first compound 0.00316 µM) was 99.3%, the viability, T/C (second compound 0.316 µM, first compound 0.01 µM) was 61.6% and the viability, T/C [13] was 59.7%. It also gave a viability, T/C [14] of 43.6%, a viability, T/C [15] of 44.1% and a viability, T/C [16] of 30.4%. The viability, T/C (second compound 1 µM, first compound 0.00316 µM) was 96.6%, the viability, T/C (second compound 1 µM, first compound 0.01 µM) was 79.2% and the viability, T/C [19] was 53.5%. For the same compound, the viability, T/C [20] was 43.3%, the viability, T/C [21] was 49.2% and the viability, T/C [22] was 34.3%. For the same compound, the viability, T/C (second compound 3.16 µM, first compound 0.00316 µM) was 89.4%, the viability, T/C (second compound 3.16 µM, first compound 0.01 µM) was 65.9% and the viability, T/C [25] was 62.1%. The viability, T/C [26] was 49.2%, the viability, T/C [27] was 47.5% and the viability, T/C [28] was 33.7%. It also gave a viability, T/C (second compound 10 µM, first compound 0.00316 µM) of 83.5%, a viability, T/C (second compound 10 µM, first compound 0.01 µM) of 80.9% and a viability, T/C [31] of 47%. The viability, T/C [32] was 40.2%, the viability, T/C [33] was 38.6% and the viability, T/C [34] was 27.3%.

Work on Nc1ccn(C2OC(CO)C(O)C2(F)F)c(=O)n1 (stereo not drawn) + Cc1cccc(N(C)C(=O)C2C(O)CCN2c2nc(C)cc(C(F)(F)F)c2C#N)c1 yielded an IC50 (second compound 0.0316 µM) of 1300 nM, an IC50 (second compound 0.1 µM) of 1730 nM and an IC50 (second compound 0.316 µM) of 844 nM. It also gave an IC50 (second compound 1 µM) of 624 nM, an IC50 (second compound 3.16 µM) of 821 nM and an IC50 (second compound 10 µM) of 535 nM. It also gave a viability, T/C [1] of 88.1%, a viability, T/C [2] of 66.7% and a viability, T/C [3] of 54.9%. For the same compound, the viability, T/C [4] was 62.1%, the viability, T/C [5] was 44.8% and the viability, T/C [6] was 20.9%. For the same compound, the viability, T/C [7] was 81.3%, the viability, T/C [8] was 68.9% and the viability, T/C [9] was 57.9%. For the same compound, the viability, T/C [10] was 62.2%, the viability, T/C [11] was 46% and the viability, T/C [12] was 22.8%. For the same compound, the viability, T/C [13] was 97.1%, the viability, T/C [14] was 64.6% and the viability, T/C [15] was 60.8%. The viability, T/C [16] was 51.4%, the viability, T/C [17] was 43.7% and the viability, T/C [18] was 26.2%. The viability, T/C [19] was 80.8%, the viability, T/C [20] was 62.1% and the viability, T/C [21] was 53.8%. It also gave a viability, T/C [22] of 46.5%, a viability, T/C [23] of 44.2% and a viability, T/C [24] of 22.4%. It also gave a viability, T/C [25] of 89.4%, a viability, T/C [26] of 63.6% and a viability, T/C [27] of 48.5%. For the same compound, the viability, T/C [28] was 60.4%, the viability, T/C [29] was 45.1% and the viability, T/C [30] was 28%. For the same compound, the viability, T/C [31] was 85.1%, the viability, T/C [32] was 70.5% and the viability, T/C [33] was 52%. The viability, T/C [34] was 44.5%, the viability, T/C [35] was 41.4% and the viability, T/C [36] was 32.5%.

With O=C(c1cc(Cc2n[nH]c(=O)c3ccccc23)ccc1F)N1CCN(C(=O)C2CC2)CC1 + Cc1cccc(N(C)C(=O)C2C(O)CCN2c2nc(C)cc(C(F)(F)F)c2C#N)c1 the IC50 (second compound 0.0316 µM) was over 10000 nM, the IC50 (second compound 0.1 µM) was over 10000 nM and the IC50 (second compound 0.316 µM) was over 10000 nM. The IC50 (second compound 1 µM) was over 10000 nM, the IC50 (second compound 3.16 µM) was over 10000 nM and the IC50 (second compound 10 µM) was over 10000 nM. For the same compound, the viability, T/C [1] was 102%, the viability, T/C [2] was 93% and the viability, T/C [3] was 92.1%. The viability, T/C [4] was 87.2%, the viability, T/C [5] was 74.5% and the viability, T/C [6] was 79.1%. It also gave a viability, T/C [7] of 114%, a viability, T/C [8] of 87.8% and a viability, T/C [9] of 92.4%. It also gave a viability, T/C [10] of 88.3%, a viability, T/C [11] of 77.6% and a viability, T/C [12] of 79.1%. For the same compound, the viability, T/C [13] was 101%, the viability, T/C [14] was 91.6% and the viability, T/C [15] was 82.9%. For the same compound, the viability, T/C [16] was 85.9%, the viability, T/C [17] was 85.8% and the viability, T/C [18] was 86.5%. It also gave a viability, T/C [19] of 86.5%, a viability, T/C [20] of 83.5% and a viability, T/C [21] of 91.5%. For the same compound, the viability, T/C [22] was 91.8%, the viability, T/C [23] was 67.5% and the viability, T/C [24] was 87.2%. It also gave a viability, T/C [25] of 76.4%, a viability, T/C [26] of 98.2% and a viability, T/C [27] of 101%. For the same compound, the viability, T/C [28] was 79.9%, the viability, T/C [29] was 86.3% and the viability, T/C [30] was 69.8%. For the same compound, the viability, T/C [31] was 72.3%, the viability, T/C [32] was 80% and the viability, T/C [33] was 78.9%. The viability, T/C [34] was 75.7%, the viability, T/C [35] was 69.8% and the viability, T/C [36] was 71.1%.
